Assay results: PMC4468608, “A distinct p53 target gene set predicts for response to the selective p53–HDM2 inhibitor NVP-CGM097” (eLife, 2015)

Test system: cell lines from the Cancer Cell Line Encyclopedia (CCLE)
Test: High-throughput cell viability assay, CCLE cell line panel (n = 356)
Format: cell-based, human
Protocol: Cell lines were partitioned into sensitive and insensitive groups based on compound potency (IC50). […] All other cell lines were obtained from ATCC (American Type Culture Collection), DSMZ (Deutsche Sammlung von Mikroorganismen und Zellkulturen), and HSRRB (Health Science Research Resources Bank) and cultured in RPMI or Dulbecco's modified Eagle's medium plus 10% FBS (Invitrogen, Carlsbad, CA) at 37°C, 5% CO2.

[1] = PE/CA-PJ34 (clone C12), TP53 MUT
[2] = cell line A172, central_nervous_system, TP53 WT
[3] = cell line BICR 31, upper_aerodigestive_tract, TP53 MUT
[4] = cell line CAL-85-1, breast, TP53 MUT
[5] = cell line CAMA-1, breast, TP53 MUT
[6] = cell line CCK-81, large_intestine, TP53 MUT
[7] = cell line COV504, ovary, TP53 MUT
[8] = cell line Capan-2, pancreas, TP53 WT
[9] = cell line ES-2, ovary, TP53 MUT
[10] = cell line ESS-1, endometrium, TP53 MUT
[11] = cell line HEC-108, endometrium, TP53 MUT
[12] = cell line HEC-265, endometrium, TP53 WT
[13] = cell line HSC-2, upper_aerodigestive_tract, TP53 MUT
[14] = cell line Hs 618.T, lung, TP53 WT
[15] = cell line Hs 888.T, bone, TP53 WT
[16] = cell line Hs 944.T, skin, TP53 WT
[17] = cell line IM95, stomach, TP53 WT

For COc1cc2c(cc1OC(C)C)[C@H](c1ccc(Cl)cc1)N(c1ccc(N(C)C[C@H]3CC[C@H](N4CCNC(=O)C4)CC3)cc1)C(=O)C2 [NVP-CFC218], the Amax (ONS-76, TP53 WT) was -16.12%, the sensitivity call (ONS-76, TP53 WT) was “insensitive (Sensitivity call for each compound was applied according to a cut-off of 4 µM for IC50 and -50% for Amax)” and the Amax (OV-90, TP53 MUT) was -1.39%. For the same molecule, the sensitivity call (OV-90, TP53 MUT) was “insensitive (Sensitivity call for each compound was applied according to a cut-off of 4 µM for IC50 and -50% for Amax)”, the Amax (P3HR-1, TP53 MUT) was -48.91% and the sensitivity call (P3HR-1, TP53 MUT) was “insensitive (Sensitivity call for each compound was applied according to a cut-off of 4 µM for IC50 and -50% for Amax)”. The Amax (P31/FUJ, TP53 MUT) was 4.23%, the sensitivity call (P31/FUJ, TP53 MUT) was “insensitive (Sensitivity call for each compound was applied according to a cut-off of 4 µM for IC50 and -50% for Amax)” and the Amax (PA-TU-8902, TP53 MUT) was 0.96%. The sensitivity call (PA-TU-8902, TP53 MUT) was “insensitive (Sensitivity call for each compound was applied according to a cut-off of 4 µM for IC50 and -50% for Amax)”, the Amax [1] was 1.01% and the sensitivity call [1] was “insensitive (Sensitivity call for each compound was applied according to a cut-off of 4 µM for IC50 and -50% for Amax)”. The Amax (PK-45H, TP53 WT) was -18.84%, the sensitivity call (PK-45H, TP53 WT) was “insensitive (Sensitivity call for each compound was applied according to a cut-off of 4 µM for IC50 and -50% for Amax)” and the Amax (PL-21, TP53 MUT) was -37.95%. The sensitivity call (PL-21, TP53 MUT) was “insensitive (Sensitivity call for each compound was applied according to a cut-off of 4 µM for IC50 and -50% for Amax)”, the Amax (QGP-1, TP53 WT) was 6.30% and the sensitivity call (QGP-1, TP53 WT) was “insensitive (Sensitivity call for each compound was applied according to a cut-off of 4 µM for IC50 and -50% for Amax)”. The Amax (Raji, TP53 MUT) was -0.41%, the sensitivity call (Raji, TP53 MUT) was “insensitive (Sensitivity call for each compound was applied according to a cut-off of 4 µM for IC50 and -50% for Amax)” and the Amax (SCC-4, TP53 MUT) was -11.24%. For the same molecule, the sensitivity call (SCC-4, TP53 MUT) was “insensitive (Sensitivity call for each compound was applied according to a cut-off of 4 µM for IC50 and -50% for Amax)”, the Amax (SCC-9, TP53 MUT) was 10.57% and the sensitivity call (SCC-9, TP53 MUT) was “insensitive (Sensitivity call for each compound was applied according to a cut-off of 4 µM for IC50 and -50% for Amax)”. The Amax (SK-N-FI, TP53 MUT) was -7.80%, the sensitivity call (SK-N-FI, TP53 MUT) was “insensitive (Sensitivity call for each compound was applied according to a cut-off of 4 µM for IC50 and -50% for Amax)” and the Amax (SNU-475, TP53 MUT) was -7.74%. The sensitivity call (SNU-475, TP53 MUT) was “insensitive (Sensitivity call for each compound was applied according to a cut-off of 4 µM for IC50 and -50% for Amax)”, the Amax (SU-DHL-8, TP53 MUT) was 11.70% and the sensitivity call (SU-DHL-8, TP53 MUT) was “insensitive (Sensitivity call for each compound was applied according to a cut-off of 4 µM for IC50 and -50% for Amax)”. The Amax (SW579, TP53 MUT) was -2.22%, the sensitivity call (SW579, TP53 MUT) was “insensitive (Sensitivity call for each compound was applied according to a cut-off of 4 µM for IC50 and -50% for Amax)” and the Amax (SW 1271, TP53 MUT) was -7.26%. The sensitivity call (SW 1271, TP53 MUT) was “insensitive (Sensitivity call for each compound was applied according to a cut-off of 4 µM for IC50 and -50% for Amax)”, the Amax (SW 1990, TP53 MUT) was -0.73% and the sensitivity call (SW 1990, TP53 MUT) was “insensitive (Sensitivity call for each compound was applied according to a cut-off of 4 µM for IC50 and -50% for Amax)”. For the same molecule, the Amax (TE-1, TP53 MUT) was -0.82%, the sensitivity call (TE-1, TP53 MUT) was “insensitive (Sensitivity call for each compound was applied according to a cut-off of 4 µM for IC50 and -50% for Amax)” and the Amax (TE-5, TP53 MUT) was 31.38%. The sensitivity call (TE-5, TP53 MUT) was “insensitive (Sensitivity call for each compound was applied according to a cut-off of 4 µM for IC50 and -50% for Amax)”, the Amax (U-87 MG, TP53 WT) was -45.86% and the sensitivity call (U-87 MG, TP53 WT) was “insensitive (Sensitivity call for each compound was applied according to a cut-off of 4 µM for IC50 and -50% for Amax)”. The Amax (WM-266-4, TP53 WT) was -75.96%, the sensitivity call (WM-266-4, TP53 WT) was “sensitive (Sensitivity call for each compound was applied according to a cut-off of 4 µM for IC50 and -50% for Amax)” and the Amax (WM-983B, TP53 MUT) was -25.79%. The sensitivity call (WM-983B, TP53 MUT) was “insensitive (Sensitivity call for each compound was applied according to a cut-off of 4 µM for IC50 and -50% for Amax)”, the Amax (YKG1, TP53 MUT) was -29.61% and the sensitivity call (YKG1, TP53 MUT) was “insensitive (Sensitivity call for each compound was applied according to a cut-off of 4 µM for IC50 and -50% for Amax)”. For the same molecule, the “NVP- CFC218 Amax (%)” value [2] was -49.68%, the “NVP- CFC218 sensitivity call” value [2] was “insensitive (Sensitivity call for each compound was applied according to a cut-off of 4 µM for IC50 and -50% for Amax)” and the “NVP- CFC218 Amax (%)” value [3] was -33.34%. For the same molecule, the “NVP- CFC218 sensitivity call” value [3] was “insensitive (Sensitivity call for each compound was applied according to a cut-off of 4 µM for IC50 and -50% for Amax)”, the “NVP- CFC218 Amax (%)” value (cell line C3A, liver, TP53 WT) was -7.36% and the “NVP- CFC218 sensitivity call” value (cell line C3A, liver, TP53 WT) was “insensitive (Sensitivity call for each compound was applied according to a cut-off of 4 µM for IC50 and -50% for Amax)”. For the same molecule, the “NVP- CFC218 Amax (%)” value (cell line C32, skin, TP53 WT) was -3.08%, the “NVP- CFC218 sensitivity call” value (cell line C32, skin, TP53 WT) was “insensitive (Sensitivity call for each compound was applied according to a cut-off of 4 µM for IC50 and -50% for Amax)” and the “NVP- CFC218 Amax (%)” value [4] was -3.57%. For the same molecule, the “NVP- CFC218 sensitivity call” value [4] was “insensitive (Sensitivity call for each compound was applied according to a cut-off of 4 µM for IC50 and -50% for Amax)”, the “NVP- CFC218 Amax (%)” value [5] was -26.17% and the “NVP- CFC218 sensitivity call” value [5] was “insensitive (Sensitivity call for each compound was applied according to a cut-off of 4 µM for IC50 and -50% for Amax)”. For the same molecule, the “NVP- CFC218 Amax (%)” value [6] was 4.13%, the “NVP- CFC218 sensitivity call” value [6] was “insensitive (Sensitivity call for each compound was applied according to a cut-off of 4 µM for IC50 and -50% for Amax)” and the “NVP- CFC218 Amax (%)” value [7] was -21.97%. The “NVP- CFC218 sensitivity call” value [7] was “insensitive (Sensitivity call for each compound was applied according to a cut-off of 4 µM for IC50 and -50% for Amax)”, the “NVP- CFC218 Amax (%)” value [8] was -4.99% and the “NVP- CFC218 sensitivity call” value [8] was “insensitive (Sensitivity call for each compound was applied according to a cut-off of 4 µM for IC50 and -50% for Amax)”. For the same molecule, the “NVP- CFC218 Amax (%)” value [9] was -22.65%, the “NVP- CFC218 sensitivity call” value [9] was “insensitive (Sensitivity call for each compound was applied according to a cut-off of 4 µM for IC50 and -50% for Amax)” and the “NVP- CFC218 Amax (%)” value [10] was 0.05%. For the same molecule, the “NVP- CFC218 sensitivity call” value [10] was “insensitive (Sensitivity call for each compound was applied according to a cut-off of 4 µM for IC50 and -50% for Amax)”, the “NVP- CFC218 Amax (%)” value [11] was -7.25% and the “NVP- CFC218 sensitivity call” value [11] was “insensitive (Sensitivity call for each compound was applied according to a cut-off of 4 µM for IC50 and -50% for Amax)”. The “NVP- CFC218 Amax (%)” value [12] was -37.19%, the “NVP- CFC218 sensitivity call” value [12] was “insensitive (Sensitivity call for each compound was applied according to a cut-off of 4 µM for IC50 and -50% for Amax)” and the “NVP- CFC218 Amax (%)” value [13] was 8.13%. For the same molecule, the “NVP- CFC218 sensitivity call” value [13] was “insensitive (Sensitivity call for each compound was applied according to a cut-off of 4 µM for IC50 and -50% for Amax)”, the “NVP- CFC218 Amax (%)” value [14] was -49.34% and the “NVP- CFC218 sensitivity call” value [14] was “insensitive (Sensitivity call for each compound was applied according to a cut-off of 4 µM for IC50 and -50% for Amax)”. For the same molecule, the “NVP- CFC218 Amax (%)” value [15] was -45.50%, the “NVP- CFC218 sensitivity call” value [15] was “insensitive (Sensitivity call for each compound was applied according to a cut-off of 4 µM for IC50 and -50% for Amax)” and the “NVP- CFC218 Amax (%)” value [16] was -32.86%. For the same molecule, the “NVP- CFC218 sensitivity call” value [16] was “insensitive (Sensitivity call for each compound was applied according to a cut-off of 4 µM for IC50 and -50% for Amax)”, the “NVP- CFC218 Amax (%)” value [17] was 33.79% and the “NVP- CFC218 sensitivity call” value [17] was “insensitive (Sensitivity call for each compound was applied according to a cut-off of 4 µM for IC50 and -50% for Amax)”. The “NVP- CFC218 Amax (%)” value (cell line JHOS-2, ovary, TP53 MUT) was -32.44%.
